According to patent US20260182577A1, “COMBINATIONS TREATMENTS” (Aequor Inc., priority 2020, published 2026):
Values joined by “and” are separate entries in the source; they are usually repeats but may differ in a detail not shown here. Equal entries are not always repeated. Where two headings read alike, the source gives them in different places.

Tests used:
[1] = system: Staphylococcus aureus VRSA VRS7 NR-46417; assay: MIC broth microdilution, compounds and antibiotics alone and in combination; format: cell-based; conditions: for MIC: Staphylococcus aureus, read-out: Minimum Inhibitory Concentration (MIC)
Procedure: (§1) Antibiotic and Antibiofilm Susceptibility Tests. Minimum inhibitory concentration (MIC) broth microdilution method was performed according to CLSI guidelines (CLSI M07-A10: Methods for Dilution Antimicrobial Susceptibility Tests for Bacteria that Grow
(§2) Aerobically; Approved Standard-Tenth Edition). Minimum bactericidal concentration (MBC) was performed according to CLSI guidelines (CLSI M26-A: Methods for Determining Bactericidal Activity of Antimicrobial Agents; Approved Guideline).
(§3) The antibiotic resistance breakpoints were defined according to the recommendations of the Clinical and Laboratory Standards Institute (CLSI M07-A10: Methods for Dilution Antimicrobial Susceptibility Tests for Bacteria That Grow Aerobically; Approved Standard-Tenth Edition).
Four antibiotics (penicillin G, methicillin, gentamycin, and vancomycin) were tested in combination with SDBS and DBSA, by using a checkerboard methodology against MRSA ATCC 33591 (methicillin-R, gentamicin-R; penicillin-R) and VRSA VRS7 BEI NR-46417 (methicillin-R, gentamicin-R; penicillin-R, vancomycin-R). The combinations were assessed by fractional inhibitory concentration indices (FICIs) and the fold reduction of the MIC (“potentiation factor”) was calculated. In clinical terms, a potentiator enhances the action of a drug.

[2] = system: S. aureus ATCC 12600 biofilm; assay: Biofilm inhibition (MBIC), Syto 9 imaging; format: cell-based, Staphylococcus aureus
Procedure: (§4) FIGS. 1A and 1B show biofilm inhibition by butyl phosphoramidate (BPA), sodium dodecylbenzenesulfonate (SDBS), and 4-Dodecylbenzenesulfonic acid (DBSA) against Staphylococcus aureus ATCC 12600 and E. coli ATCC 11775, which was determined by (A) measuring total intensity with Ex/Em (nm): 456/541 and (B) staining biofilm with Syto 9 green-fluorescent nucleic acid stain. Biofilm images appear white and gray and images without biofilm appear black. Images of untreated biofilm, sub-MBIC, and MBIC were taken using MiniMax 300 Imaging Cytometer (Molecular Devices).
(§5) Imaging. Biofilm inhibition imaging was determined by growing biofilm in a black-walled optically-clear bottom 96 well plate at a 45° angle to promote biofilm formation prior to imaging. Biofilm was stained with Syto 9 green fluorescent live and dead nucleic acid stain and measuring total intensity with excitation/emission (nm): 456/541. Images of biofilm were taken using MiniMax 300 Imaging Cytometer (Molecular Devices).

[3] = system: Staphylococcus aureus MRSA ATCC 33591; assay: MIC broth microdilution, compounds and antibiotics alone and in combination; format: cell-based; conditions: for MIC: Staphylococcus aureus, read-out: Minimum Inhibitory Concentration (MIC); for MIC / Minimum Inhibitory Concentration (MIC): alone, or antibiotic with SDBS/DBSA at sub-MIC concentration
Procedure: as §1, §2, §3
Four antibiotics (penicillin G, methicillin, gentamycin, and vancomycin) were tested in combination with SDBS and DBSA, by using a checkerboard methodology against MRSA ATCC 33591 (methicillin-R, gentamicin-R; penicillin-R) and VRSA VRS7 BEI NR-46417 (methicillin-R, gentamicin-R; penicillin-R, vancomycin-R). The combinations were assessed by fractional inhibitory concentration indices (FICIs) and the fold reduction of the MIC (“potentiation factor”) was calculated. In clinical terms, a potentiator enhances the action of a drug. SDBS and […] potentiate methicillin, gentamicin, penicillin, and vancomycin activity against MRSA and VRSA making MRSA and VRSA sensitive to those antibiotics (Table 13).

B. cepacia biofilm = assay: Biofilm inhibition (MBIC); format: cell-based, Burkholderia cepacia
Procedure: as §5

[4] = system: E. coli ATCC 11775 biofilm; assay: Biofilm inhibition (MBIC), Syto 9 imaging; format: cell-based
Procedure: as §4, §5

[5] = system: P. aeruginosa type 2 mucoid ATCC 33468; assay: MIC broth microdilution; format: cell-based, Pseudomonas aeruginosa
Procedure: as §1, §2

[6] = system: S. aureus ATCC 6358 biofilm; assay: Minimum biofilm eradicating concentration (MBEC) assay, ASTM E2799-12; format: cell-based, Staphylococcus aureus
Procedure: Data corresponds to 4.4-Log reduction.
Minimum biofilm eradicating concentration (MBEC) was performed according to the ASTM standard (ASTM E2799-12; Standard Test Method for Testing Disinfectant Efficacy against Pseudomonas aeruginosa Biofilm using the MBEC Assay). Assays were performed in quadruplicates on more than one occasion.

[7] = VRSA VRS7 NR-46417, alone, or antibiotic with SDBS/DBSA at sub-MIC concentration

Compound	MIC [1, 7] [µg/mL]	MBIC (inhibition of biofilm formation) [2] [µg/mL]	MIC [3] [µg/mL]	Resistant / sensitive by CLSI breakpoints ([1]; VRSA VRS7 NR-46417)	Resistant / sensitive by CLSI breakpoints [3]	further results
CCCCCCCCCCCCc1ccc(S(=O)(=O)O)cc1 [DBSA, 4-Dodecylbenzenesulfonic acid]	> 20	100	19			
COc1cccc(OC)c1C(=O)N[C@@H]1C(=O)N2[C@@H]1SC(C)(C)[C@@H]2C(=O)O [Methicillin, methicillin]	> 22.7		> 22.7	(R)	(R)	
CC1(C)S[C@@H]2[C@H](NC(=O)Cc3ccccc3)C(=O)N2[C@H]1C(=O)O [Penicillin, penicillin G]	11.3		> 22.7	(R)	(R)	
CCCCCCCCCCCCOS(=O)(=O)[O-].[Na+] [SDS, sodium dodecyl sulfate]		140				
CN[C@H](CC(C)C)C(=O)N[C@H]1C(=O)N[C@@H](CC(N)=O)C(=O)N[C@H]2C(=O)N[C@H]3C(=O)N[C@H](C(=O)N[C@H](C(=O)O)c4cc(O)cc(O)c4-c4cc3ccc4O)[C@H](O)c3ccc(c(Cl)c3)Oc3cc2cc(c3O[C@@H]2O[C@H](CO)[C@@H](O)[C@H](O)[C@H]2O[C@H]2C[C@](C)(N)[C@H](O)[C@H](C)O2)Oc2ccc(cc2Cl)[C@H]1O [Vancomycin, vancomycin]				(R)		MIC ([1]; VRSA): 22.7 µg/mL
butyl phosphoramidate [BPA]		50				MBIC (inhibition of biofilm formation) (B. cepacia biofilm): 50 µg/mL; MBIC (inhibition of biofilm formation) [4]: 50 µg/mL; Minimum Inhibitory Concentration (MIC) [5]: 25 µg/mL and 12.5 µg/mL; Minimum Inhibitory Concentration (MIC) [1, 7]: 25 µg/mL and 12.5 µg/mL; Minimum Inhibitory Concentration (MIC) [3]: 25 µg/mL and 12.5 µg/mL; Log reduction of viable cells ([6]; after 10 minutes of exposure): 4.4 Log; removal of biofilm ([6]; after 10 minutes of exposure, colony counting CFU/ml): 99.99%; MBEC (removal of existing biofilm) ([6]; demonstrated by Lonza): < 25 µg/mL
gentamicin				(R)	(R)	Minimum Inhibitory Concentration (MIC) [1, 7]: 22.7 µg/mL; Minimum Inhibitory Concentration (MIC) [3]: >45.4 µg/mL
